This note sets out measurements from patent US9708359B2, “Pyrrolopyrimidine nucleosides and analogs thereof” (Chimerix, Inc., priority 2015, dated 2017).

Converted amounts (≈) assume the structure as drawn.

One data set concerns EBV. Kind of data set: DNA quantitation assay for EBV. It counts as cell-based, Epstein-Barr virus. Particulars: human gammaherpesvirus 4, Akata cells. As to the method:
DNA Quantitation Assays for EBV and HHV-6B:
Assays for EBV were performed in Akata cells that were induced to undergo a lytic infection with goat anti-human IgG antibody by standard methods. Experimental compounds were diluted in plates. Akata cells were added to the plates and incubated. For HHV-6, compounds were serially diluted then uninfected HSB-2 or Molt-3 cells were added to each well. Infection was initiated by adding HHV-6A infected HSB-2 cells, or HHV-6B infected Molt-3 cells, and incubated for 7 d at 37° C. For all assays, denaturation buffer was added to each well to denature the DNA and an aliquot was aspirated through a nylon membrane. The membranes were then allowed to dry before equilibration in DIG. Specific digoxigenin (DIG)-labeled probes were prepared for each virus according to the manufacturer's protocol. Detection of specifically bound DIG probe was performed with anti-DIG antibody using the manufacturer's protocol. An image of the photographic film was captured and quantified and compound concentrations sufficient to reduce the accumulation of viral DNA by 50% (EC50), were interpolated from the experimental data.
Assays for EBV were performed in Akata cells that were induced to undergo a lytic infection with 50 μg/mL of a goat anti-human IgG antibody by standard methods. […]

In data set [1] the test system is murine norovirus (MNV) CR3. Kind of data set: Study No. 2: efficacy against Murine Norovirus infection in mice. It counts as in vivo, BALB/c mice. The following applies: twice daily 300 mg/kg starting 2 days prior to infection, 10^4 PFU. Here is the method:
Study No. 2 evaluated the efficacy of twice-daily dosing of Compound 1 at 150 mg/kg or 300 mg/kg, initiated prior to infection of mice with 10^4 pfu of MNV CR3. A control group of mice treated with vehicle was also included. The 150 mg/kg dose was started either 2 days (39 hours) prior to inoculation, 1 day (15 hours) prior to inoculation, or on the day of (3 hours prior to) inoculation; the 300 mg/kg dose was started 2 days (39 hours) prior to infection.
This study tested the ability of Compound 1 to protect mice from or reduce murine norovirus infection. Compound was delivered twice daily at indicated doses via oral gavage starting 2 days prior to inoculation, 1 day prior to inoculation or at time of inoculation. A control group of mice treated with vehicle only was also included. Mice were infected with 10^4 PFU of murine norovirus by pipetting virus into mouth 3 hours after the Day 0 dose. All samples were titered by plaque assay.
For both studies, compound was delivered via oral gavage at the indicated doses and times prior to infection. Mice were infected with murine norovirus CR3 by pipetting virus into mouth 3 hours after the first day 0 dose of Compound 1 was given. Following infection, compound was administered twice daily through day 3 post-infection.
The mice used were ˜20 gram, 8-12 week old female BALB/c mice in groups of 5. […]

A short description of data set [2]: Solubility in water (rework study). The class given is physicochemical. Here is the method: A brief rework study for compound 1, (containing 1.6% benzoic acid per AUC, HPLC) was executed in 10 vol of water (1 g in 10 mL):
All three experiments gave compound 1 with less than 0.1% benzoic acid (UAC, HPLC). The slurries were fluid, were easily stirred and filtration was fast. […] Without wishing to be bound by theory, a loss of NMT than 1% is expected (solubility 1 mg/mL). HPLC data for compound 1 were obtained with a method suitable for polar compounds using a Zorbax Eclipse Plus C18 column (water/ACN/TFA, 97.5/2.5/0.05). This is the same column used for steps 1 and 2.

By EC50 is commonly meant the concentration needed to bring the measured effect to its halfway point. The low end stands for greater potency, the high end for weaker potency. Broadly, the solubility is the concentration that dissolves in the medium under given conditions. In the data set with EBV, `Cc1nc(N)c2c(C(N)=O)cn([C@@H]3O[C@H](CO)[C@@H](O)[C@H]3O)c2n1` [Compound 1, 4-amino-7-((2R,3R,4S,5R)-3,4-dihydroxy-5-(hydroxymethyl)tetrahydrofuran-2-yl)-2-methyl-7H-pyrrolo[2,3-d]pyrimidine-5-carboxamide] displayed an EC50 of 7.15 µM. Further, the “murine norovirus titer in tissue and feces” value in data set [1] was “significantly reduces murine norovirus titer both in tissue and feces”. Further, the solubility in data set [2] was determined as 1000 µg/mL (≈ 3.09 mM).
